Holding throughout (assay type): biochemical
Assay [1] has as its target T1, human Factor Xa (Homo sapiens, UniProt P00742).
T1 construct: This complex converts factor X to Xa
The assay is described as follows: Factor Xa assay (chromogenic, Ki). The note with it: 3.3 nM Xa, S-2222 0.5 mM; read-out: binding affinity to serine proteases: Xa. As for the experimental part: (§1) Factor Xa, Thrombin, and Plasma Kallikrein Assays
(§2) These procedures are used to determine the constant of inhibition (Ki) for a sample compound of the invention.
(§3) Procedure • 1. Add 50 μL sample to each well. • 2. Add 50 μL appropriately diluted coagulation factor to each well. • 3. Incubate for 5 minutes at room temperature with gentle agitation. • 4. Add 50 μL appropriately diluted substrate to each well. • 5. Agitate plate for 20-25 sec. • 6. Monitor absorbance at 405 nm every 10 sec for a total of 5 minutes at room temperature. • 7. Calculate Vmax over 10 points.

Assay [2] concerns the target T2, trypsin (Bos taurus, UniProt P00760).
T2 sequence (P00760 24-246): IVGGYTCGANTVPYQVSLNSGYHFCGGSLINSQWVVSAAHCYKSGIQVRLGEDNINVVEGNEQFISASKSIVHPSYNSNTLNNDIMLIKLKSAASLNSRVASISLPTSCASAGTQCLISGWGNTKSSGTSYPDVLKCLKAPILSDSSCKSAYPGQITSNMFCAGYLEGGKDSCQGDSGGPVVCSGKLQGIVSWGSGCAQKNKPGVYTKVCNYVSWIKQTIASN
The assay is described as follows: Trypsin binding affinity. The conditions noted are these: read-out: binding affinity to serine proteases: trypsin.

Assay [3] deals with human Plasma Kallikrein (Homo sapiens, UniProt P03952). The assay is described as follows: Plasma Kallikrein assay (chromogenic, Ki). The conditions noted are these: 1.5 nM plasma kallikrein, S-2302 0.3 mM; read-out: binding affinity to serine proteases: kallikrein. As for the experimental part:
as §1, §2, §3

Assay [4] addresses T3, human Thrombin (Homo sapiens, UniProt P00734).
T3 construct: rapidly converts prothrombin to thrombin
Nature of the assay: Thrombin assay (chromogenic, Ki). The conditions noted are these: 8.2 nM thrombin, S-2266 0.3 mM; read-out: binding affinity to serine proteases: thrombin. As to the method: as §1, §2, §3

The target in assay [5] is tissue factor/factor VIIa (Homo sapiens, UniProt P08709). Nature of the assay: Tissue Factor/Factor VIIa antagonist assay (chromogenic, Ki). The conditions noted are these: 10 nM VIIa, 30 nM TF, Chromozym-tPA 1.33 mM; read-out: binding affinity to serine proteases: VIIa. As to the method: Tissue Factor/Factor VIIa Antagonist Assay
Sequence of tissue factor/factor VIIa (P08709 213-466 limits assumed): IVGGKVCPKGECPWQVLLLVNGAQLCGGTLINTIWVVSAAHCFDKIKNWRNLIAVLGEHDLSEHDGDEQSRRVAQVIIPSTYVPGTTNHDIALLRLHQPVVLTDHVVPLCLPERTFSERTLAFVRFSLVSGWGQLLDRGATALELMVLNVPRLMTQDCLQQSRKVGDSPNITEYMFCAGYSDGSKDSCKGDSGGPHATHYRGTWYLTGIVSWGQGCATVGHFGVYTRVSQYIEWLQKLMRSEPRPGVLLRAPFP
Sequence of tissue factor/factor VIIa (P08709 61-212 limits assumed): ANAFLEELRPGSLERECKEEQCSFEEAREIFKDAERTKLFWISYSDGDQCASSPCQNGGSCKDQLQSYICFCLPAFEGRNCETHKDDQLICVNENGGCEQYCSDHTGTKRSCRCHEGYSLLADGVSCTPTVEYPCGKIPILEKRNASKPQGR
Sequence of tissue factor/factor VIIa (P13726 33-251 partner limits assumed): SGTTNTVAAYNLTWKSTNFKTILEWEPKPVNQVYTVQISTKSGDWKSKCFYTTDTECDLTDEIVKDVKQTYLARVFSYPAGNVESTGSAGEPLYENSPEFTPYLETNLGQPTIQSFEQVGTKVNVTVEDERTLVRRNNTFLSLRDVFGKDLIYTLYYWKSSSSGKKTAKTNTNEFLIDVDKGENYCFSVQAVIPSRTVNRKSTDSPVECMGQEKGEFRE
This procedure is used to determine the constant of inhibition (Ki) for a sample compound of the invention.
Procedure • 1. Prepare a solution of 2 μg/mL (90 nM) tissue factor and 1.5 μg/mL (30 nM) factor VIIa in assay buffer with CaCl2. • 2. Incubate for 15 minutes at room temperature. • 3. Add 50 μL sample to each well. • 4. Add 50 μL tissue factor/factor VIIa solution to each well. • 5. Incubate for 15 minutes at room temperature with gentle agitation. • 6. Add 50 μL substrate to each well. • 7. Agitate plate for 20-25 sec. • 8. Monitor absorbance at 405 nm every 10 see for a total of 5 minutes at room temperature. • 9. Calculate Vmax over 10 points.

The target of assay [6] is plasmin (Homo sapiens, UniProt P00747). Nature of the assay: Plasmin binding affinity. The conditions noted are these: read-out: binding affinity to serine proteases: plasmin.
Sequence of plasmin (P00747 581-810 limits assumed, species assumed): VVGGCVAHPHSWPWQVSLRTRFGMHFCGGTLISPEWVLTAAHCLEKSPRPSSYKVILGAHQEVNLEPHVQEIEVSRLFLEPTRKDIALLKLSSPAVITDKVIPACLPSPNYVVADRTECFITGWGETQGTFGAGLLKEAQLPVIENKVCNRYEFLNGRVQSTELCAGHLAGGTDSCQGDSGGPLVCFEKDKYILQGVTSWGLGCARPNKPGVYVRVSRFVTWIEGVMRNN
Sequence of plasmin (P00747 97-580 partner limits assumed, species assumed): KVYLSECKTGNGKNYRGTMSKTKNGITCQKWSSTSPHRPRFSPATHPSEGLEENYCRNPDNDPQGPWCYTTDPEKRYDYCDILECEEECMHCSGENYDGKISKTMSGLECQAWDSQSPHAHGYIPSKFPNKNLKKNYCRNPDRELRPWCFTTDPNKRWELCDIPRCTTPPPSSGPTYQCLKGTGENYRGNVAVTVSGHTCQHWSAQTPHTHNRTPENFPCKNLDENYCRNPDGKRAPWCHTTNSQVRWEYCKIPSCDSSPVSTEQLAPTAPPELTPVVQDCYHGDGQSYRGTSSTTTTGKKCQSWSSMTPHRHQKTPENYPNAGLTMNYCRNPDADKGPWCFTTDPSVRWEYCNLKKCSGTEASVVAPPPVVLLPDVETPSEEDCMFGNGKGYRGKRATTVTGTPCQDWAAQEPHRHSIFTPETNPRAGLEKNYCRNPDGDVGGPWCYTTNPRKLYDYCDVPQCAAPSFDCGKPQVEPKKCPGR

“And” between values parts separate entries of the source, which are not always exact repeats. Equal values may be shown once.

T1 sequence (P00742 235-488 limits assumed): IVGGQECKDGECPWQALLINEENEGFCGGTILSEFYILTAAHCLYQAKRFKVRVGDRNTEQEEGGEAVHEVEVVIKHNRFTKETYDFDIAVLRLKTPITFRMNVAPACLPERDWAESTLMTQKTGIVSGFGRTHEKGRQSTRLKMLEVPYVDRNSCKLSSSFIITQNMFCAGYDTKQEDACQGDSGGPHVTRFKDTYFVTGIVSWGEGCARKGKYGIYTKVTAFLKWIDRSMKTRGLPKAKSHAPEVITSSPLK
T1 sequence (P00742 41-179 limits assumed): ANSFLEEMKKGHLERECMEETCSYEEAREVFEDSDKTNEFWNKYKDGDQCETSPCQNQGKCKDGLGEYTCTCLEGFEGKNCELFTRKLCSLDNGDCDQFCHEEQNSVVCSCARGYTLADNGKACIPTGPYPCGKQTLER
Sequence of human Plasma Kallikrein (P03952 391-638 limits assumed): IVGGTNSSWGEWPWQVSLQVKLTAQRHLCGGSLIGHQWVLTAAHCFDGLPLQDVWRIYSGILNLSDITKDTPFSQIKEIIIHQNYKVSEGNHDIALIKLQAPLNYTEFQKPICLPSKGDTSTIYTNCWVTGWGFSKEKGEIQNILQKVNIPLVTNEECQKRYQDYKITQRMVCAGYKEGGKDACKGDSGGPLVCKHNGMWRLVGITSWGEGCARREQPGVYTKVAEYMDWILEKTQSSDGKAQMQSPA
Sequence of human Plasma Kallikrein (P03952 20-390 partner limits assumed): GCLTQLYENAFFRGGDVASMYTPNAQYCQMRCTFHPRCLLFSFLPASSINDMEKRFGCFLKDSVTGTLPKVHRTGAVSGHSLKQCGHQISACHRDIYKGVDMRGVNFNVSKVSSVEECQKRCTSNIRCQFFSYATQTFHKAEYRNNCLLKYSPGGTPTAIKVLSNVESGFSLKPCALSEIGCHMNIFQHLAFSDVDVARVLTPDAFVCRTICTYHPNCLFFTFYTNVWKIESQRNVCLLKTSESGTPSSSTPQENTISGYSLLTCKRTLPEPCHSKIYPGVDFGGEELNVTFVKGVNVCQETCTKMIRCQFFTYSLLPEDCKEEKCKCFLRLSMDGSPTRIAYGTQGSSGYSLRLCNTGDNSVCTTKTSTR

On to `C=CCOC(=O)[C@@H]1C[C@@H](Oc2cccc(C(=N)N)c2)CN1C(=O)c1ccccc1` [compound 36], for which the Ki in assay [1] is 19.9 µM and 14 µM; in assay [2], 4.26 µM; in assay [3], more than 33.8 µM; in assay [4], 21.7 µM.
In the case of `CS(=O)(=O)N1C[C@H](Oc2cccc(C(=N)N)c2)C[C@H]1C(=O)Nc1ccc(Cl)cc1` [compound 52], the Ki in assay [5] is more than 39 µM; in assay [2] it was 40.5 µM; in assay [3], 27 µM; in assay [4], more than 36.2 µM; in assay [6], more than 24.5 µM.
Regarding `N=C(N)c1ccc(NC(=O)[C@@H]2C[C@@H](Oc3cccc(C(=N)N)c3)CN2Cc2ccccc2[N+](=O)[O-])cc1` [compound 5], the Ki is more than 39 µM in assay [5]; 2.13 µM in assay [1]; 2.14 µM in assay [2]; 16 µM in assay [3]; 14.5 µM in assay [4]; 7 µM in assay [6].
Turning to `CCCN1C[C@H](Oc2cccc(C(=N)N)c2)C[C@H]1C(=O)Nc1ccc(C(=N)N)cc1` [compound 1], the Ki in assay [5] was 7.8 µM; in assay [1] it was 0.297 µM; in assay [2] it was 0.866 µM; in assay [3], 6.56 µM; in assay [4], 4.74 µM; in assay [6] it was 7.36 µM.
Regarding `N=C(N)c1ccc(NC(=O)[C@@H]2C[C@@H](Oc3cccc(C(=N)N)c3)CN2C2CCCCC2)cc1` [compound 6], the Ki was more than 39 µM in assay [5]; 2.41 µM in assay [1]; 5.15 µM in assay [2]; 3.4 µM in assay [3]; 15 µM in assay [6].
Consider `C=CCOC(=O)[C@@H]1C[C@@H](Oc2cccc(C(=N)N)c2)CN1` [compound 27], for which the Ki in assay [5] is 15.6 µM; in assay [1], 14 µM; in assay [2] it was 14.1 µM; in assay [6], more than 24.6 µM.
As for `CN(Cc1ccccc1)C(=O)[C@@H]1C[C@@H](Oc2cccc(C(=N)N)c2)CN1Cc1ccccc1` [compound 15], the Ki is 156 µM in assay [5]; 6.8 µM in assay [1]; 2.26 µM in assay [2]; 34.2 µM in assay [3]; 11 µM in assay [4]; 15.4 µM in assay [6].
As to `CCCCCCN1C[C@H](Oc2cccc(C(=N)N)c2)C[C@H]1C(=O)Nc1ccc(C(=N)N)cc1` [compound 16], the Ki is more than 39 µM in assay [5]; 6.81 µM in assay [1]; 6.07 µM in assay [2]; 17 µM in assay [3]; 29 µM in assay [4]; 12 µM in assay [6].
As to `N=C(N)c1cccc(O[C@@H]2C[C@@H](C(=O)Nc3ccc(Cl)cc3)N(C(=O)c3ccccc3)C2)c1` [compound 17], the Ki in assay [5] was more than 39 µM; in assay [1] it was 7.88 µM; in assay [2], 3.6 µM; in assay [3] it was more than 33.8 µM.
Take `N=C(N)c1cccc(O[C@@H]2C[C@@H](C(=O)N3CCc4ccccc4C3)N(C(=O)c3ccccc3)C2)c1` [compound 32]: the results for the Ki in assay [5], in assay [1] and in assay [2] were more than 399 µM, 15.3 µM and 7.84 µM, respectively.
Regarding `C=CCOC(=O)[C@@H]1C[C@@H](Oc2cccc(C(=N)N)c2)CN1C(C)=O` [compound 76], the Ki in assay [2] is 30.3 µM; in assay [3], more than 33.8 µM; in assay [4] it was more than 36.2 µM; in assay [6], more than 24.5 µM.
For `N=C(N)c1cccc(O[C@H]2CN[C@H](C(=O)Nc3ccccc3)C2)c1` [compound 79], the Ki in assay [5] is 19 µM; in assay [1] it was more than 35 µM; in assay [2], 20 µM; in assay [4], more than 36 µM; in assay [6] it was 24 µM.
For `N=C(N)c1ccc(NC(=O)[C@@H]2C[C@@H](Oc3cccc(C(=N)N)c3)CN2Cc2ccccc2[N+](=O)[O-])cc1` [compound 7], the Ki is more than 39 µM in assay [5]; 2.49 µM in assay [1]; 2.22 µM in assay [2]; 20 µM in assay [3]; 25 µM in assay [4]; 7 µM in assay [6].
Regarding `COc1cc2c(cc1OC)CN(C(=O)[C@@H]1C[C@@H](Oc3cccc(C(=N)N)c3)CN1)CC2` [compound 11], the Ki turned out to be 5.84 µM in assay [1]; 0.607 µM in assay [2]; 0.979 µM in assay [3]; 0.875 µM in assay [4]; 7.36 µM in assay [6].
Turning to `N=C(N)c1ccc(NC(=O)[C@@H]2C[C@@H](Oc3cccc(C(=N)N)c3)CN2Cc2ccc([N+](=O)[O-])cc2)cc1` [compound 22], the Ki in assay [5] is more than 39 µM; in assay [1], 10.5 µM; in assay [2] it was 7.76 µM; in assay [3] it was 3.4 µM; in assay [4], more than 36 µM; in assay [6] it was 15 µM.
Consider `COC(=O)[C@@H]1C[C@@H](Oc2cccc(C(=N)N)c2)CN1` [compound 80], for which the Ki in assay [5] was more than 39 µM; in assay [1], more than 35.1 µM; in assay [2], 28.3 µM; in assay [3], 55 µM; in assay [4], more than 36.2 µM; in assay [6] it was more than 24.6 µM.
For `N=C(N)c1cccc(O[C@@H]2C[C@@H](C(=O)N3CCc4ccccc4C3)N(S(=O)(=O)c3ccccc3)C2)c1` [compound 21], the Ki was more than 39 µM in assay [5], 10.5 µM in assay [1], 20.2 µM in assay [2] and 14.5 µM in assay [4].
Take `CC(=O)N1C[C@H](Oc2cccc(C(=N)N)c2)C[C@H]1C(=O)Nc1ccc(C(=N)N)cc1` [compound 14]: the Ki is more than 39 µM in assay [5]; 6.61 µM in assay [1]; 10.1 µM in assay [2]; more than 36.2 µM in assay [4]; more than 24.5 µM in assay [6].
Turning to `N#Cc1ccc(NC(=O)[C@@H]2C[C@@H](Oc3cccc(C(=N)N)c3)CN2)cc1` [compound 34], the Ki in assay [5] is 156 µM; in assay [1], 16.8 µM.
`N=C(N)c1cccc(O[C@H]2CN[C@H](C(=O)Nc3cccc4ccccc34)C2)c1` [compound 33]: the Ki in assay [5] came out at 30.5 µM; in assay [1], 15.5 µM.
The matching figures for `COc1ccc(CNC(=O)[C@@H]2C[C@@H](Oc3cccc(C(=N)N)c3)CN2S(=O)(=O)c2ccccc2)cc1` [compound 50]: more than 195 µM and 34.1 µM.
The matching figures for `N=C(N)c1cccc(O[C@H]2CN[C@H](C(=O)N[C@@H](CCC(=O)O)C(=O)O)C2)c1` [compound 73]: not below 390 µM and 140 µM.
Turning to `C=CCOC(=O)[C@@H]1C[C@@H](Oc2cccc(C(=N)N)c2)CN1Cc1ccccc1` [compound 60], the Ki in assay [2] was 4.99 µM.
On to `CN1CCN(C(=O)[C@@H]2C[C@@H](Oc3cccc(C(=N)N)c3)CN2)CC1` [compound 18], for which the Ki in assay [5] is 273 µM; in assay [1], 8.87 µM.
The matching figures for `N=C(N)c1cccc(O[C@H]2CN[C@H](C(N)=O)C2)c1` [compound 66]: 78 µM and 70.1 µM.
The matching figures for `CN(C(=O)[C@@H]1C[C@@H](Oc2cccc(C(=N)N)c2)CN1)c1ccccc1` [compound 40]: 156 µM and 23 µM.
Taken in the same sequence, the figures for `N=C(N)c1cccc(O[C@H]2CN[C@H](C(=O)Nc3ccc(C(F)(F)F)cc3)C2)c1` [compound 24] were 312 µM and 12.9 µM.

These data come from patent US6838479B2, “Amidine inhibitors of serine proteases” (Genentech, Inc., priority 2000, dated 2005).
